Active and inactive are the calls of the source. How the calls were made is not given here.
Tested on: CCRIS mutagenicity, Ames/micronucleus/aberration tests
Assay: CCRIS mutagenicity studies
[1] = Test System: AMES SALMONELLA TYPHIMURIUM, Strain/Indicator: TA98, Metabolic Activation: NONE, Method: STANDARD PLATE
[2] = Test System: AMES SALMONELLA TYPHIMURIUM, Strain/Indicator: TA100, Metabolic Activation: NONE, Method: STANDARD PLATE
[3] = Test System: AMES SALMONELLA TYPHIMURIUM, Strain/Indicator: TA98, Metabolic Activation: RAT, LIVER, S-9, AROCLOR 1254, Method: STANDARD PLATE
[4] = Test System: AMES SALMONELLA TYPHIMURIUM, Strain/Indicator: TA1538, Metabolic Activation: NONE, Method: STANDARD PLATE

SMILES: O=[N+]([O-])c1ccc(-c2nc(N(CCO)CCO)c3ccccc3n2)s1
- mutagenic call [1]: active; positive
- mutagenic call [2]: active; positive

SMILES: N[C@@H](CCC(=O)NNc1ccc(CO)cc1)C(=O)O
- mutagenic call (Test System: AMES SALMONELLA TYPHIMURIUM, Strain/Indicator: TA97, Metabolic Activation: NONE): active; positive
- mutagenic call (Test System: AMES SALMONELLA TYPHIMURIUM, Strain/Indicator: TA98, Metabolic Activation: NONE): inactive; negative
- mutagenic call (Test System: AMES SALMONELLA TYPHIMURIUM, Strain/Indicator: TA100, Metabolic Activation: NONE): inactive; negative
- mutagenic call (Test System: AMES SALMONELLA TYPHIMURIUM, Strain/Indicator: TA102, Metabolic Activation: NONE): inactive; negative
- mutagenic call (Test System: AMES SALMONELLA TYPHIMURIUM, Strain/Indicator: TA104, Metabolic Activation: MUSHROOM TYROSINASE, Method: PREINCUBATION): inactive; negative
- mutagenic call (Test System: AMES SALMONELLA TYPHIMURIUM, Strain/Indicator: TA104, Metabolic Activation: NONE): active; positive
- mutagenic call (Test System: AMES SALMONELLA TYPHIMURIUM, Strain/Indicator: TA104, Metabolic Activation: NONE, Method: PREINCUBATION): inactive; negative
- mutagenic call (Test System: AMES SALMONELLA TYPHIMURIUM, Strain/Indicator: TA104, Metabolic Activation: RAT, KIDNEY, HOMOGENATE, REDUCED GLUTATHIONE, Method: PREINCUBATION): active; positive
- mutagenic call (Test System: AMES SALMONELLA TYPHIMURIUM, Strain/Indicator: TA104, Metabolic Activation: RAT, KIDNEY, HOMOGENATE, Method: PREINCUBATION): active; positive
- mutagenic call (Test System: AMES SALMONELLA TYPHIMURIUM, Strain/Indicator: TA104, Metabolic Activation: RAT, LIVER, CYTOSOL, AROCLOR 1254, NADPH, Method: PREINCUBATION): active; positive
- mutagenic call (Test System: AMES SALMONELLA TYPHIMURIUM, Strain/Indicator: TA104, Metabolic Activation: RAT, LIVER, CYTOSOLIC FRACTION, AROCLOR 1254 (10%)): active; positive
- mutagenic call (Test System: AMES SALMONELLA TYPHIMURIUM, Strain/Indicator: TA104, Metabolic Activation: RAT, LIVER, MICROSOMES, AROCLOR 1254, Method: PREINCUBATION): inactive; negative
- mutagenic call (Test System: AMES SALMONELLA TYPHIMURIUM, Strain/Indicator: TA104, Metabolic Activation: RAT, LIVER, MICROSOMES, AROCLOR 1254 AND RAT, KIDNEY, HOMOGENATE, Method: PREINCUBATION): active; positive
- mutagenic call (Test System: AMES SALMONELLA TYPHIMURIUM, Strain/Indicator: TA1535, Metabolic Activation: NONE): inactive; negative
- mutagenic call (Test System: AMES SALMONELLA TYPHIMURIUM, Strain/Indicator: TA1535, Metabolic Activation: NONE, Method: PREINCUBATION): inactive; negative
- mutagenic call (Test System: AMES SALMONELLA TYPHIMURIUM, Strain/Indicator: TA1535, Metabolic Activation: RAT, LIVER, S-9, AROCLOR 1254, Method: PREINCUBATION): inactive; negative
- mutagenic call (Test System: AMES SALMONELLA TYPHIMURIUM, Strain/Indicator: TA1537, Metabolic Activation: NONE): active; positive
- mutagenic call (Test System: AMES SALMONELLA TYPHIMURIUM, Strain/Indicator: TA1537, Metabolic Activation: NONE, Method: PREINCUBATION): inactive; negative
- mutagenic call (Test System: AMES SALMONELLA TYPHIMURIUM, Strain/Indicator: TA1537, Metabolic Activation: RAT, LIVER, S-9, AROCLOR 1254, Method: PREINCUBATION): inactive; negative
- mutagenic call (Test System: AMES SALMONELLA TYPHIMURIUM, Strain/Indicator: TA1538, Metabolic Activation: NONE): inactive; negative

SMILES: CNC(=O)Oc1ccccc1OC(C)C
- mutagenic call (Test System: AMES SALMONELLA TYPHIMURIUM, Strain/Indicator: TA98, Metabolic Activation: HAMSTER, LIVER, S-9, AROCLOR 1254, Method: STANDARD PLATE): inactive; negative
- mutagenic call [1]: inactive; negative
- mutagenic call [3]: inactive; negative
- mutagenic call (Test System: AMES SALMONELLA TYPHIMURIUM, Strain/Indicator: TA100, Metabolic Activation: HAMSTER, LIVER, S-9, AROCLOR 1254, Method: STANDARD PLATE): inactive; negative
- mutagenic call [2]: inactive; negative
- mutagenic call (Test System: AMES SALMONELLA TYPHIMURIUM, Strain/Indicator: TA100, Metabolic Activation: RAT, LIVER, S-9, AROCLOR 1254, Method: STANDARD PLATE): inactive; negative
- mutagenic call (Test System: AMES SALMONELLA TYPHIMURIUM, Strain/Indicator: TA1535, Metabolic Activation: NONE, Method: STANDARD PLATE): active; positive
- mutagenic call (Test System: AMES SALMONELLA TYPHIMURIUM, Strain/Indicator: TA1537, Metabolic Activation: NONE, Method: STANDARD PLATE): inactive; negative
- mutagenic call (Test System: AMES SALMONELLA TYPHIMURIUM, Strain/Indicator: TA1537, Metabolic Activation: RAT, LIVER, S-9, AROCLOR 1254, Method: STANDARD PLATE): inactive; negative
- mutagenic call (Test System: AMES SALMONELLA TYPHIMURIUM, Strain/Indicator: TA1538, Metabolic Activation: HAMSTER, LIVER, S-9, AROCLOR 1254, Method: STANDARD PLATE): inactive; negative
- mutagenic call [4]: inactive; negative
- mutagenic call (Test System: AMES SALMONELLA TYPHIMURIUM, Strain/Indicator: TA1538, Metabolic Activation: RAT, LIVER, S-9, AROCLOR 1254, Method: STANDARD PLATE): inactive; negative
- mutagenic call (Test System: CHINESE HAMSTER V-79, Strain/Indicator: V-79(HPRT)/6-THIOGUANINE, Metabolic Activation: NONE): inactive; negative
- mutagenic call (Test System: MOUSE LYMPHOMA, Strain/Indicator: L5178Y (TK+/TK-), Metabolic Activation: NONE, Method: SUSPENSION/PLATE): active; positive. reevaluation of results: positive
- mutagenic call (Test System: MOUSE LYMPHOMA, Strain/Indicator: L5178Y (TK+/TK-), Metabolic Activation: RAT, LIVER, S-9, AROCLOR 1254, Method: SUSPENSION/PLATE): active; positive. reevaluation of results: positive

SMILES: CC(=O)[C@]1(O)Cc2c(O)c3c(c(O)c2[C@@H](O)C1)C(=O)c1c(O)cccc1C3=O
- mutagenic call [1]: active; positive
- mutagenic call [3]: active; positive
- mutagenic call [2]: inactive; negative
- mutagenic call [4]: inactive; negative

SMILES: Nc1cccc2ncccc12
- mutagenic call (Test System: AMES SALMONELLA TYPHIMURIUM, Strain/Indicator: TA98, Metabolic Activation: NONE, Method: PREINCUBATION): inactive; negative
- mutagenic call (Test System: AMES SALMONELLA TYPHIMURIUM, Strain/Indicator: TA98, Metabolic Activation: RAT, LIVER, S-9, KANECHLOR 500 OR PHENOBARBITAL AND BETA-NAPHTHOFLAVONE, Method: PREINCUBATION): active; positive
- mutagenic call (Test System: AMES SALMONELLA TYPHIMURIUM, Strain/Indicator: TA100, Metabolic Activation: NONE, Method: PREINCUBATION): inactive; negative
- mutagenic call (Test System: AMES SALMONELLA TYPHIMURIUM, Strain/Indicator: TA100, Metabolic Activation: RAT, LIVER, S-9, KANECHLOR 500 OR PHENOBARBITAL AND BETA-NAPHTHOFLAVONE, Method: PREINCUBATION): active; positive
- mutagenic call (Test System: AMES SALMONELLA TYPHIMURIUM, Strain/Indicator: TA100, Metabolic Activation: RAT, LIVER, S-9, PHENOBARBITAL AND 5,6-BENZOFLAVONE, Method: PREINCUBATION): active; positive

SMILES: Cc1c2ccccc2c(CO)c2c3c(ccc12)[C@@H](O)[C@H](O)C=C3
- mutagenic call (Test System: CHINESE HAMSTER V-79, Strain/Indicator: V-79/6-THIOGUANINE, Metabolic Activation: CELL-MEDIATED, Method: STANDARD PLATE): active; positive
- mutagenic call (Test System: CHINESE HAMSTER V-79, Strain/Indicator: V-79/OUABAIN, Metabolic Activation: CELL-MEDIATED, Method: STANDARD PLATE): active; positive

Reference: PubChem BioAssay AID1259407 (Chemical Carcinogenesis Research Information System (CCRIS), 2018)
